What was measured:
patients with R/R AML = assay: Gene expression in PBMC from treated patients with R/R AML; assay type: in vivo, human
Method: For patients with R/R AML, the compound of Formula (I) was administered at 120 mg (n=3), 180 mg (n=2), 240 mg (n=8), or 360 mg (n=4) daily for QD for seven days in dose-escalation phase, with different ‘off-treatment’ duration depending on cohort assignments. Samples taken at pre-dose on Cycle 1, Day 1 (C1D1) and Cycle 1, Day 5 (C1D5).
Treatment of patients with R/R AML with the compound of Formula (I) induces expression of genes involved in the Bcl-2 apoptotic pathway. […] FIG. 8 illustrates induced expression of Bcl-2 genes in PBMC following treatment of R/R AML patients with the compound of Formula (I). Eighteen genes were included in analysis: BAD, BAX, BCL2L1, MCL1, BCL2, BID, CAPN2, CASP10, CASP3, CASP7, CASP8, CASP9, TNFRSF10A, TNFRSF10B, TP53, PUMA, NOXA and STAT3. Experimental data was obtained similar to the method set forth in Example 4.

[1] = tested on: patients with R/R myelofibrosis; assay: mRNA expression in cells isolated from treated patients with R/R myelofibrosis; assay type: in vivo, human; settings: 120 mg or 240 mg for 5 or 7 days, C1D1 pre-dose vs C1D5
Method: Treatment of patients with the compound of Formula (I) induces p21, Bax and Puma expression in vivo in patients with R/R myelofibrosis or R/R AML. mRNA expression in cells isolated from patients was evaluated pre-dosing on day 1 and 24 hours after the first course of treatment with the compound of Formula (I) in patients with R/R myelofibrosis (FIG. 7(A)). The compound of Formula (I) is administered at 120 mg for 7 days for Cohort 1, 240 mg for 7 days for Cohort 2, 240 mg for 7 days for Cohort 3, and 240 mg for 5 days for Cohort 4. Samples taken at pre-dose on Cycle 1, Day 1 (C1D1) and Cycle 1, Day 5 (C1D5).

CLL tumor cells = assay: p53 and Bcl-2 family protein expression and apoptosis (cPARP+) in patient CLL tumor cells treated ex vivo, intracellular flow cytometry; assay type: cell-based, human; settings: CLL tumor cells on HS-5 stromal cells, 24 hours
Method: The effect of the compound of Formula (I) on the expression of p53 along with anti-apoptotic and pro-apoptotic proteins was assessed in tumors cells isolated from patients diagnosed with CLL. Blood samples were collected prior to the patient receiving any treatment. CLL tumor cells were isolated and incubated on HS-5 stromal cells for 24 hours and then treated with the compound of Formula (I) for 24 hours. p53 and Bcl-2 family proteins were measured by intracellular flow cytometry and shown as median fluorescent intensity (MFI). The percent cPARP+ is shown above the level of basal spontaneous apoptosis. CLL tumor cells were cultured on HS-5 stromal cells were then treated with an increasing concentrations of the compound of Formula (I) for 24 hours. The result was an increase in intracellular P53 levels along with a decrease in anti-apoptotic Bcl-XL and Mcl-1 levels, and an increase in pro-apoptotic Bax.

[2] = tested on: HEL-92 cells (TP53 mutant); assay: Bcl-2 family protein expression in HEL-92 cells, intracellular flow cytometry; assay type: cell-based; settings: 72 hours
Method: (§1) The effect of the compound of Formula (I) on inducing apoptosis along with the expression of anti-apoptotic and pro-apoptotic protein expression in the MV-411 AML cell was assessed. […] Molecular Cancer Therapeutics. 2015 Mar. 1; 14(3):649-58. After 72 hours of culture with the compound of Formula (I), MV-411 (TP53 wt) and HEL-92 cells (TP53 mutant) were stained with antibodies against various Bcl-2 family proteins and data acquired using intracellular flow cytometry (FIG. 5(B)).

[3] = tested on: MV-411 AML cell line (TP53 wild-type); assay: Bcl-2 family protein expression in MV-411 AML cells, intracellular flow cytometry; assay type: cell-based; settings: MV-411 cells, 72 hours, above the concentration to induce cell stasis
Method: as §1

[4] = tested on: UKE-1 myelofibrosis cell line (TP53 wild-type); assay: Pro-apoptotic protein expression in UKE-1 myelofibrosis cell line, intracellular flow cytometry; assay type: cell-based; settings: UKE-1 cells, 2.5 pM, 24, 48 and 72 hours, time-dependent
Method: The compound of Formula (I) induces Bak, Bax and BIM expression in a myelofibrosis cell line. The UKE-1 myelofibrosis cell line (TP53 wild-type) was cultured for 24, 48 and 72 hours with 2.5 pM of compound (equivalent to levels observed in vivo following administration in patients) and stained with antibodies against various pro-apoptotic protein using intracellular flow cytometry techniques. […] The upper line is cells treated with the compound of Formula (I) while the lower line is a control (no treatment).

[5] = 120-360 mg QD for seven days, C1D1 pre-dose vs C1D5

CC(C)[C@@H](CS(=O)(=O)C(C)C)N1C(=O)[C@@](C)(CC(=O)O)C[C@H](c2cccc(Cl)c2)[C@H]1c1ccc(Cl)cc1 [Formula (I), 2-((3R,5R,6S)-5-(3-chlorophenyl)-6-(4-chlorophenyl)-1-((S)-1-(isopropylsulfonyl)-3-methylbutan-2-yl)-3-methyl-2-oxopiperidin-3-yl) acetic acid]
expression of Bax (gene expression) (patients with R/R AML; [5]): increased expression
expression of Puma (gene expression) (patients with R/R AML; [5]): increased expression
expression of p21 (gene expression) (patients with R/R AML; [5]): increased expression
expression of genes involved in the BCL2 family/apoptosis pathway (patients with R/R AML; cells isolated from peripheral blood (PBMC), eighteen genes): induced the expression
expression of Bax (mRNA) [1]: increased expression
expression of p21 (mRNA) [1]: increased expression
expression of anti-apoptotic protein Bcl-2 (CLL tumor cells): decreased expression
expression of pro-apoptotic protein Bak (CLL tumor cells): increased expression
cell apoptosis (percent cPARP+ above basal spontaneous apoptosis) (CLL tumor cells; increasing concentrations): increased cell apoptosis in a dose-dependent manner
anti-apoptotic Bcl-XL levels (CLL tumor cells; increasing concentrations, MFI): decrease
anti-apoptotic Mcl-1 levels (CLL tumor cells; increasing concentrations, MFI): decrease
intracellular P53 levels (CLL tumor cells; increasing concentrations, MFI): increase
pro-apoptotic Bax levels (CLL tumor cells; increasing concentrations, MFI): increase
changes in Bcl-2 family proteins [2]: no changes
anti-apoptotic Bcl-2 family proteins [3]: decrease
pro-apoptotic effector protein Bak [3]: increase
pro-apoptotic effector protein Bax [3]: increase
protein expression of BIM [4]: induced protein expression
protein expression of Bak [4]: induced protein expression
protein expression of Bax [4]: induced protein expression

Source: patent US20250134876A1, “METHODS OF TREATING A CANCER OVEREXPRESSING ONE OR MORE BCL-2 FAMILY PROTEINS” (Kartos Therapeutics, Inc., priority 2021, published 2025)
